*1 amine or outer side, *2 acyl side, *3 side chain or, on linkers, in order; H or OH if unused. Where a SMILES comes first, the peptide text is derived from it. Bridges are numbered along the chain shown (N, C = ends). [ ]: non-standard residue; d: D form. The star is where a group is joined. ξ: configuration not given here. Phe(4-CH2CH2COOH) = N[C@@H](Cc1ccc(CCC(=O)O)cc1)C(=O)O; Phe(3-CF3) = N[C@@H](Cc1cccc(C(F)(F)F)c1)C(=O)O; Phe(4-COOH) = N[C@@H](Cc1ccc(C(=O)O)cc1)C(=O)O; Bip = N[C@@H](Cc1ccc(-c2ccccc2)cc1)C(=O)O; Phe(3-Me) = Cc1cccc(C[C@H](N)C(=O)O)c1; NH(CH2)12COOH = O=C(O)CCCCCCCCCCCCN*; NMeAEEA = CN(CCOCCOCC(=O)[*:2])[*:1]; Val(3-OH) = CC(C)(O)[C@H](N)C(=O)O; 4Pal = N[C@@H](Cc1ccncc1)C(=O)O; 2Thi = N[C@@H](Cc1cccs1)C(=O)O; Cha = N[C@@H](CC1CCCCC1)C(=O)O; Cit = NC(=O)NCCC[C@H](N)C(=O)O; Ile(3ξ) = CCC(C)[C@H](N)C(=O)O; Thr(3ξ) = CC(O)[C@H](N)C(=O)O; Carboxymethyl = O=C(O)C*; NMeA = CN[C@@H](C)C(=O)O; Orn = NCCC[C@H](N)C(=O)O; Aun = NCCCCCCCCCCC(=O)O; Dab = NCC[C@H](N)C(=O)O; Dap = NC[C@H](N)C(=O)O; AEEA = NCCOCCOCC(=O)O
Molecular target: T1, PD-1/PD-L1 interaction (PE-labeled human PD-L1-Ig binding to Jurkat cell line over-expressing human PD-1) (Homo sapiens, UniProt Q15116)
T1 construct: expressed in transfected cells; host or cells: Jurkat
Assay: Jurkat-PD-1 Cell Binding High-Content Screening Assay (CBA)
Settings: Jurkat-hPD-1 cells, PE-labeled PD-L1-Ig 20 nM final; read-out: Jurkat HPD1 PDL1 IC50
Method in brief: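 Binding of 20 nM (final) PE-tagged PD-L1-Ig to compound-pretreated Jurkat-hPD-1 cells was measured by high-content imaging after 1 h. Pretreatment ran 2 h at 37 °C in DMEM with 10% fetal calf serum.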

T1 sequence (Q15116 25-288): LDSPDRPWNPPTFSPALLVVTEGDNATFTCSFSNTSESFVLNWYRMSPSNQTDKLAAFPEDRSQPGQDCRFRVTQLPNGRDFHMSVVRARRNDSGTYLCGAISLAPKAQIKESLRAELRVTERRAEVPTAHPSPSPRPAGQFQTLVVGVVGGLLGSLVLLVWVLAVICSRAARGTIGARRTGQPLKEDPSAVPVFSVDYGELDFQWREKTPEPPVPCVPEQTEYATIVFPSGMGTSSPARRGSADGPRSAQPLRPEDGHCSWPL

Row | Compound | IC50 [nM]
1 | CCC(C)[C@@H]1NC(=O)[C@H](Cc2ccc(-c3ccccc3)cc2)NC(=O)[C@H](C(C)C)NC(=O)[C@H](Cc2c[nH]c3ccccc23)NC(=O)[C@H](CC(=O)O)NC(=O)[C@H](Cc2ccncc2)NC(=O)[C@H](Cc2ccc(OCC(=O)O)cc2)NC(=O)CSC[C@@H](C(=O)N[C@@H](CCCN)C(=O)NCCOCCOCC(=O)NCCCCCCCCCCC(=O)O)NC(=O)[C@H](C(C)O)NC(=O)[C@H](C(C)C)NC(=O)[C@H](CC2CCCCC2)NC(=O)[C@H](CCN)NC(=O)[C@@H](CC(C)C)NC(=O)[C@H](C)N(C)C1=O (stereo partly drawn) [Example 2106] ({CH2CO}-Y(Carboxymethyl)[4Pal]DWV[Bip][Ile(3ξ)][NMeA][dL][Dab][Cha]V[Thr(3ξ)]C[Orn][AEEA][Aun]-OH; thioether N-14) | 8
2 | Cc1cccc(C[C@@H]2NC(=O)[C@H](CC(=O)O)NC(=O)[C@H](Cc3ccc(OCC(=O)O)cc3)NC(=O)[C@H](C(C)O)NC(=O)CSC[C@@H](C(=O)N(C)CCOCCOCC(=O)NCCCCCCCCCCC(=O)O)NC(=O)[C@H](CCC(N)=O)NC(=O)[C@H](C(C)C)NC(=O)[C@H](CC3CCCCC3)NC(=O)[C@H](CCN)NC(=O)[C@@H](CC(C)C)NC(=O)[C@H](C)N(C)C(=O)[C@H](C(C)C)NC(=O)[C@H](Cc3ccc(-c4ccccc4)cc3)NC(=O)[C@H](C(C)C)NC2=O)c1 (stereo partly drawn) [Example 2357] ({CH2CO}-[Thr(3ξ)]Y(Carboxymethyl)D[Phe(3-Me)]V[Bip]V[NMeA][dL][Dab][Cha]VQC[NMeAEEA][Aun]-OH; thioether N-14) | 66.7
3 | Cc1cccc(C[C@@H]2NC(=O)[C@H](CC(=O)O)NC(=O)[C@H](Cc3ccc(OCC(=O)O)cc3)NC(=O)[C@H](C(C)O)NC(=O)CSC[C@@H](C(=O)NCCOCCOCC(=O)NCCCCCCCCCCC(=O)O)NC(=O)[C@H](C(C)O)NC(=O)[C@H](C(C)C)NC(=O)[C@H](CC3CCCCC3)NC(=O)[C@H](CCN)NC(=O)[C@@H](CC(C)C)NC(=O)[C@H](C)N(C)C(=O)[C@H](Cc3ccc(OCC(=O)O)cc3)NC(=O)[C@H](Cc3ccc(-c4ccccc4)cc3)NC(=O)[C@H](Cc3ccc(C(=O)O)cc3)NC2=O)c1 (stereo partly drawn) [Example 2343] ({CH2CO}-[Thr(3ξ)]Y(Carboxymethyl)D[Phe(3-Me)][Phe(4-COOH)][Bip]Y(Carboxymethyl)[NMeA][dL][Dab][Cha]V[Thr(3ξ)]C[AEEA][Aun]-OH; thioether N-14) | 51.7
4 | CC(C)C[C@H]1NC(=O)[C@H](C)N(C)C(=O)[C@H](CCCNC(N)=O)NC(=O)[C@H](Cc2ccc(-c3ccccc3)cc2)NC(=O)[C@H](Cc2ccc(C(=O)O)cc2)NC(=O)[C@H](Cc2cccc(C(F)(F)F)c2)NC(=O)[C@H](CC(=O)O)NC(=O)[C@H](Cc2ccc(OCC(=O)O)cc2)NC(=O)[C@H](Cc2ccc(C(=O)O)cc2)NC(=O)CSC[C@@H](C(=O)N[C@@H](CCN)C(=O)NCCCCCCCCCCCCC(=O)O)NC(=O)[C@H](CO)NC(=O)[C@H](C(C)(C)O)NC(=O)[C@H](CC2CCCCC2)NC(=O)[C@H](CCN)NC1=O [Example 1148] ({CH2CO}-[Phe(4-COOH)]Y(Carboxymethyl)D[Phe(3-CF3)][Phe(4-COOH)][Bip][Cit][NMeA][dL][Dab][Cha][Val(3-OH)]SC[Dab]-{NH(CH2)12COOH}; thioether N-14) | 17.8
5 | Cc1cccc(C[C@@H]2NC(=O)[C@H](CC(=O)O)NC(=O)[C@H](Cc3ccc(OCC(=O)O)cc3)NC(=O)[C@H](CCCNC(=N)N)NC(=O)CSC[C@@H](C(=O)N[C@@H](CCN)C(=O)NCCCCCCCCCCC(=O)O)NC(=O)[C@H](C(C)O)NC(=O)[C@H](C(C)C)NC(=O)[C@H](CC3CCCCC3)NC(=O)[C@H](CCN)NC(=O)[C@@H](CC(C)C)NC(=O)[C@H](C)N(C)C(=O)[C@H](Cc3ccc(OCC(=O)O)cc3)NC(=O)[C@H](Cc3ccc(-c4ccccc4)cc3)NC(=O)[C@H](Cc3ccc(OCC(=O)O)cc3)NC2=O)c1 (stereo partly drawn) [Example 2307] ({CH2CO}-RY(Carboxymethyl)D[Phe(3-Me)]Y(Carboxymethyl)[Bip]Y(Carboxymethyl)[NMeA][dL][Dab][Cha]V[Thr(3ξ)]C[Dab][Aun]-OH; thioether N-14) | 13.8

Results, then the compound that gave them:

Row | IC50 [nM] | Compound
6 | 8.9 | Cc1cccc(C[C@@H]2NC(=O)[C@H](CC(=O)O)NC(=O)[C@H](Cc3ccc(OCC(=O)O)cc3)NC(=O)[C@H](CN)NC(=O)CSC[C@@H](C(=O)N[C@@H](CCN)C(=O)NCCCCCCCCCCC(=O)O)NC(=O)[C@H]([C@@H](C)O)NC(=O)[C@H](C(C)C)NC(=O)[C@H](CC3CCCCC3)NC(=O)[C@H](CCN)NC(=O)[C@@H](CC(C)C)NC(=O)[C@H](C)N(C)C(=O)[C@H](Cc3ccc(OCC(=O)O)cc3)NC(=O)[C@H](Cc3ccc(-c4ccccc4)cc3)NC(=O)[C@H](Cc3ccc(CCC(=O)O)cc3)NC2=O)c1 [Example 1262] ({CH2CO}-[Dap]Y(Carboxymethyl)D[Phe(3-Me)][Phe(4-CH2CH2COOH)][Bip]Y(Carboxymethyl)[NMeA][dL][Dab][Cha]VTC[Dab][Aun]-OH; thioether N-14)
7 | 8.7 | Cc1cccc(C[C@@H]2NC(=O)[C@H](CC(=O)O)NC(=O)[C@H](Cc3ccc(OCC(=O)O)cc3)NC(=O)[C@H](CCCNC(=N)N)NC(=O)CSC[C@@H](C(=O)N[C@H](CC(N)=O)C(=O)NCCCCCCCCCCC(=O)O)NC(=O)[C@H](C(C)O)NC(=O)[C@H](C(C)C)NC(=O)[C@H](CC3CCCCC3)NC(=O)[C@H](CCN)NC(=O)[C@@H](CC(C)C)NC(=O)[C@H](C)N(C)C(=O)[C@H](CCCNC(N)=O)NC(=O)[C@H](Cc3ccc(-c4ccccc4)cc3)NC(=O)[C@H](C(C)C)NC2=O)c1 (stereo partly drawn) [Example 2312] ({CH2CO}-RY(Carboxymethyl)D[Phe(3-Me)]V[Bip][Cit][NMeA][dL][Dab][Cha]V[Thr(3ξ)]C[dN][Aun]-OH; thioether N-14)
8 | 27.9 | Cc1cccc(C[C@@H]2NC(=O)[C@H](CC(=O)O)NC(=O)[C@H](Cc3ccc(OCC(=O)O)cc3)NC(=O)[C@H](CCCNC(=N)N)NC(=O)CSC[C@@H](C(=O)N[C@@H](CCCCN)C(=O)NCCCCCCCCCCC(=O)O)NC(=O)[C@H]([C@@H](C)O)NC(=O)[C@H](C(C)C)NC(=O)[C@H](CC3CCCCC3)NC(=O)[C@H](CCN)NC(=O)[C@@H](CC(C)C)NC(=O)[C@H](C)N(C)C(=O)[C@H](Cc3ccc(OCC(=O)O)cc3)NC(=O)[C@H](Cc3ccc(-c4ccccc4)cc3)NC(=O)[C@H](Cc3ccc(OCC(=O)O)cc3)NC2=O)c1 [Example 1224] ({CH2CO}-RY(Carboxymethyl)D[Phe(3-Me)]Y(Carboxymethyl)[Bip]Y(Carboxymethyl)[NMeA][dL][Dab][Cha]VTCK[Aun]-OH; thioether N-14)
9 | 24 | CC(C)C[C@@H]1NC(=O)[C@H](Cc2c[nH]c3ccccc23)NC(=O)[C@H](CC(=O)O)NC(=O)[C@H](Cc2ccccc2)NC(=O)[C@H](Cc2ccc(OCC(=O)O)cc2)NC(=O)CSC[C@@H](C(=O)N[C@@H](CCCCN)C(=O)NCCOCCOCC(=O)NCCCCCCCCCCC(=O)O)NC(=O)[C@H](CO)NC(=O)[C@H](C(C)C)NC(=O)[C@H](CC2CCCCC2)NC(=O)[C@H](CCN)NC(=O)[C@@H](CC(C)C)NC(=O)[C@H](C)N(C)C(=O)[C@H](C(C)C)NC(=O)[C@H](Cc2ccc(-c3ccccc3)cc2)NC1=O [Example 2098] ({CH2CO}-Y(Carboxymethyl)FDWL[Bip]V[NMeA][dL][Dab][Cha]VSCK[AEEA][Aun]-OH; thioether N-14)

Same assay, conditions: PE-labeled PD-L1-Ig 20 nM final, Jurkat-hPD-1 cells; read-out: Jurkat HPD1 PDL1 IC50

Row | IC50 [nM] | Compound
10 | 39.7 | CC(=O)NCCCC[C@@H]1NC(=O)[C@H](C(C)(C)O)NC(=O)[C@H](CC2CCCCC2)NC(=O)[C@H](CCN)NC(=O)[C@@H](CC(C)C)NC(=O)[C@H](C)N(C)C(=O)[C@H](CCC(=O)O)NC(=O)[C@H](Cc2ccc(-c3ccccc3)cc2)NC(=O)[C@H](Cc2ccc(C(=O)O)cc2)NC(=O)[C@H](Cc2cccc(C(F)(F)F)c2)NC(=O)[C@H](CC(=O)O)NC(=O)[C@H](Cc2ccc(OCC(=O)O)cc2)NC(=O)[C@H](Cc2ccc(OCC(=O)O)cc2)NC(=O)CSC[C@@H](C(=O)N[C@@H](CCN)C(=O)NCCOCCOCC(=O)NCCCCCCCCCCCCC(=O)O)NC1=O [Example 2640] ({CH2CO}-Y(Carboxymethyl)Y(Carboxymethyl)D[Phe(3-CF3)][Phe(4-COOH)][Bip]E[NMeA][dL][Dab][Cha][Val(3-OH)]K(Ac)C[Dab][AEEA]-{NH(CH2)12COOH}; thioether N-14)
11 | 4.4 | CC(C)C[C@H]1NC(=O)[C@H](C)N(C)C(=O)[C@H](Cc2ccc(OCC(=O)O)cc2)NC(=O)[C@H](Cc2ccc(-c3ccccc3)cc2)NC(=O)[C@H](Cc2ccc(C(=O)O)cc2)NC(=O)[C@H](Cc2cccc(C(F)(F)F)c2)NC(=O)[C@H](CC(=O)O)NC(=O)[C@H](Cc2ccc(OCC(=O)O)cc2)NC(=O)[C@H](C(C)O)NC(=O)CSC[C@@H](C(=O)N[C@@H](CCN)C(=O)NCCCCCCCCCCC(=O)O)NC(=O)[C@H](CCC(=O)O)NC(=O)[C@H](C(C)C)NC(=O)[C@H](CC2CCCCC2)NC(=O)[C@H](CCN)NC1=O (stereo partly drawn) [Example 2574] ({CH2CO}-[Thr(3ξ)]Y(Carboxymethyl)D[Phe(3-CF3)][Phe(4-COOH)][Bip]Y(Carboxymethyl)[NMeA][dL][Dab][Cha]VEC[Dab][Aun]-OH; thioether N-14)
12 | 136 | CC(C)C[C@H]1NC(=O)[C@H](C)N(C)C(=O)[C@H](Cc2ccc(C(=O)O)cc2)NC(=O)[C@H](Cc2ccc(-c3ccccc3)cc2)NC(=O)[C@H](Cc2ccc(OCC(=O)O)cc2)NC(=O)[C@H](Cc2cccc(C(F)(F)F)c2)NC(=O)[C@H](CC(=O)O)NC(=O)[C@H](Cc2ccc(OCC(=O)O)cc2)NC(=O)[C@H](Cc2cccs2)NC(=O)CSC[C@@H](C(=O)N[C@@H](CCN)C(=O)NCCCCCCCCCCCCC(=O)O)NC(=O)[C@H](Cc2cnc[nH]2)NC(=O)[C@H](C(C)(C)O)NC(=O)[C@H](CC2CCCCC2)NC(=O)[C@H](CCN)NC1=O [Example 2636] ({CH2CO}-[2Thi]Y(Carboxymethyl)D[Phe(3-CF3)]Y(Carboxymethyl)[Bip][Phe(4-COOH)][NMeA][dL][Dab][Cha][Val(3-OH)]HC[Dab]-{NH(CH2)12COOH}; thioether N-14)

Source: patent US20260070945A1, “MACROCYCLIC IMMUNOMODULATORS” (Bristol-Myers Squibb Company, priority 2022, published 2026)
